In the first data set the target is T1, Activated human p38α (Homo sapiens, UniProt Q16539).
T1 construct: purchased Upstate Biotechnology Inc. 14-251
T1 sequence (Q16539 whole entry): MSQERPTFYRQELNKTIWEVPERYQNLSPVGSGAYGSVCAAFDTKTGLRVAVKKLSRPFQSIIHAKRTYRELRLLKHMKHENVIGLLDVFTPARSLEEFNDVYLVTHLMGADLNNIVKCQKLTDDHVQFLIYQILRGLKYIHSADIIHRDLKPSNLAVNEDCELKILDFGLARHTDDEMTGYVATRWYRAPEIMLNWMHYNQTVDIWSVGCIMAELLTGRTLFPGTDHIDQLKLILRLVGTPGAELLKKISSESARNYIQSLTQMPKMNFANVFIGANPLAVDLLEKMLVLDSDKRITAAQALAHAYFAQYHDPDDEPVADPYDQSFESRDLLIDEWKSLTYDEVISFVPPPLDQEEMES
The data set is described as follows: p38MAP kinase inhibition test. It is filed as biochemical. To be noted: at a concentration of 1 μmol/L; substrate myelin basic protein, ATP 20 μmol/L, [γ-32P]ATP; read-out: enzyme inhibitory activity. The gist of the method: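 Phosphorylation of myelin basic protein (20 μg/assay) by the kinase measured via [γ-32P]ATP incorporation at 20 μmol/L ATP, pH 7.2 MOPS buffer, 30° C. for 15 min. Labelled substrate bound to P81 paper, washed, and quantified by scintillation counting; compounds added in DMSO.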
Take `COc1ccc(C(F)(F)F)cc1NC(=O)c1ccc(C)c(-c2cc3cnc(NC(C)C)nc3cc2O)c1` [Compound 338, 7-Hydroxy-2-isopropylamino-6-{5-[(2-methoxy-5-trifluoromethylphenyl)carbamoyl]-2-methylphenyl}quinazoline]: the inhibition at 1 µM is not below 50%. Still for that read-out and setting: the same measure for `CCC(CC)Nc1ncc2cc(-c3cccc(NC(=O)c4cccc(N(C)C)c4)c3)c(O)cc2n1` [Compound 366, 6-{3-[(3-Dimethylaminophenyl)carbonylamino]phenyl}-2-(3-pentylamino)-7-hydroxyquinazoline]: not below 50%; for `CC(C)Nc1ncc2cc(-c3cccc(NC(=O)c4cc(F)cc(N5CCCC5)c4)c3)c(O)cc2n1` [Compound 351, 6-{3-[3-Fluoro-5-(pyrrolidin-1-yl)benzoylamino]phenyl}-7-hydroxy-2-(isopropylamino)quinazoline]: not below 50%; for `Cc1ccccc1-c1cc2cnc(NC3CCCCC3)nc2cc1O` [Compound 171, 2-(Cyclohexylamino)-7-hydroxy-6-(2-methylphenyl)quinazoline]: not below 50%. The same measure, in the same setting: the same measure for `Cc1ccc(C(=O)NC2CC2)cc1-c1cc2cnc(Nc3c(C)cccc3C)nc2cc1O` [Compound 317, 6-(5-Cyclopropylcarbamoyl-2-methylphenyl)-2-(2,6-dimethylanilino)-7-hydroxyquinazoline]: not below 50%; for `Cc1cc(C)c(Nc2ncc3cc(-c4ccccc4C)c(O)cc3n2)c(C)c1` [Compound 300, 7-Hydroxy-6-(2-methylphenyl)-2-(2,4,6-trimethylanilino)quinazoline]: not below 50%; for `COc1cc2nc(NC(C)C)ncc2cc1-c1ccco1` [Compound 208, 6-(2-Furyl)-2-isopropylamino-7-methoxyquinazoline]: not below 50%.

For the compound `CC[C@H](C)Nc1ncc2cc(-c3cc(NC(C)=O)ccc3CO)ccc2n1` [Compound 272, (S)-6-[5-acetylamino-2-(hydroxymethyl)phenyl]-2-(sec-butylamino)quinazoline], the inhibition at 1 µM was not below 50%. As to `COc1cc2nc(NC3CCN(S(C)(=O)=O)CC3)ncc2cc1-c1cccc(NC(C)=O)c1` [Compound 238, 6-(3-Acetylaminophenyl)-7-methoxy-2-[1-(methylsulfonyl)piperidin-4-ylamino]quinazoline], the inhibition at 1 µM is not below 50%.

On to `CC(C)Nc1ncc2cc(-c3ccccc3Cl)c(OCCCO)cc2n1` [Compound 24, 6-(2-Chlorophenyl)-7-(3-hydroxypropyloxy)-2-isopropylaminoquinazoline], for which the inhibition at 1 µM was not below 50%. On the same count and under the same terms, in the case of `COc1cc2nc(NC3CCN(S(C)(=O)=O)CC3)ncc2cc1-c1ccccc1NC(C)=O` [Compound 239, 6-(2-Acetylaminophenyl)-7-methoxy-2-[1-(methylsulfonyl)piperidin-4-ylamino]quinazoline] it was not below 50%. The same measure, in the same setting: the same measure for `COc1c(-c2ccc(F)cc2F)cc2cnc(NC(C)C)nc2c1Br` [Compound 82, 8-Bromo-6-(2,4-difluorophenyl)-2-isopropylamino-7-methoxyquinazoline]: not below 50%; for `CC(C)Nc1ncc2cc(C(=O)c3cc(F)cc(F)c3)c(O)cc2n1` [Compound 134, 6-(3,5-Difluorobenzoyl)-7-hydroxy-2-(isopropylamino)quinazoline]: not below 50%; for `CC(C)Nc1ncc2cc(-c3cccc(NC(=O)C4CCC4)c3)c(O)cc2n1` [Compound 294, 6-[3-(Cyclobutylcarbonylamino)phenyl]-7-hydroxy-2-(isopropylamino)quinazoline]: not below 50%.

As for `CCCC(CCC)Nc1ncc2cc(-c3ccccc3C)c(O)cc2n1` [Compound 174, 7-Hydroxy-6-(2-methylphenyl)-2-(4-heptylamino)quinazoline], the inhibition at 1 µM was not below 50%. Take `CC(C)Nc1ncc2cc(-c3ccccc3Cl)c(OCCC(=O)O)cc2n1` [Compound 30, 7-(2-Carboxyethyloxy)-6-(2-chlorophenyl)-2-isopropylaminoquinazoline]: the inhibition at 1 µM is not below 50%. On the same count and under the same terms, in the case of `CC(C)Nc1ncc2cc(-c3cccc(NC(=O)c4ccc[nH]4)c3)ccc2n1` [Compound 258, 2-Isopropylamino-6-{3-[(1H-pyrrol-2-yl)carbonylamino]phenyl}quinazoline] it was not below 50%; in that of `Cc1cc2nc(NC(C)C)ncc2cc1-c1cc(NC(=O)c2ccc[nH]2)ccc1CO` [Compound 281, 6-{2-Hydroxymethyl-5-[(1H-pyrrol-2-yl)carbonylamino]phenyl}-2-isopropylamino-7-methylquinazoline], not below 50%; in that of `CC(C)Nc1ncc2cc(-c3ccccc3Cl)c(OCCCC(=O)O)cc2n1` [Compound 31, 7-(3-Carboxypropyloxy)-6-(2-chlorophenyl)-2-isopropylaminoquinazoline], not below 50%.

As to `COc1cc2nc(NC(C)C)ncc2cc1-c1ccccc1C(=O)N1CCOCC1` [Compound 188, 2-Isopropylamino-7-methoxy-6-[2-(morpholinocarbonyl)phenyl]quinazoline], the inhibition at 1 µM is not below 50%. Regarding `COc1cc2nc(NC3CCN(S(=O)(=O)C(C)C)CC3)ncc2cc1-c1ccccc1Cl` [Compound 143, 6-(2-Chlorophenyl)-2-[1-(isopropylsulfonyl)piperidin-4-ylamino]-7-methoxyquinazoline], the inhibition at 1 µM is not below 50%.

For `Cc1ccc(-n2nc(C(C)(C)C)cc2C(=O)Nc2cccc(-c3cc4cnc(NC(C)C)nc4cc3O)c2)cc1` [Compound 359, 6-{3-[5-tert-Butyl-2-(4-methylphenyl)-2H-pyrazol-3-ylcarbonylamino]phenyl}-7-hydroxy-2-(isopropylamino)quinazoline], the inhibition at 1 µM was not below 50%.

As for `COc1cc2nc(NC(C)C)ncc2cc1-c1ccccc1[N+](=O)[O-]` [Compound 55, 2-Isopropylamino-7-methoxy-6-(2-nitrophenyl)quinazoline], the inhibition at 1 µM is not below 50%. On the same count and under the same terms, the same measure for `Cc1ccc(NC(=O)c2cnccn2)cc1-c1ccc2nc(NC(C)C)ncc2c1` [Compound 261, 2-Isopropylamino-6-[2-methyl-5-(pyrazinylcarbonylamino)phenyl]quinazoline]: not below 50%; for `COc1cc2nc(NC(C)C)ncc2cc1-c1ccc(F)cc1F` [Compound 3, 6-(2,4-Difluorophenyl)-2-isopropylamino-7-methoxyquinazoline]: not below 50%.

Tested on in another data set: not given
Experiment: not given
Conditions: not given
What is called melting point is the temperature, or range, at which the solid turns liquid. `COc1ccc(C(F)(F)F)cc1NC(=O)c1ccc(C)c(-c2cc3cnc(NC(C)C)nc3cc2O)c1` [Compound 338, 7-Hydroxy-2-isopropylamino-6-{5-[(2-methoxy-5-trifluoromethylphenyl)carbamoyl]-2-methylphenyl}quinazoline] showed a melting point of 280 to 281 °C. Still for that read-out and setting: the same measure for `CCC(CC)Nc1ncc2cc(-c3cccc(NC(=O)c4cccc(N(C)C)c4)c3)c(O)cc2n1` [Compound 366, 6-{3-[(3-Dimethylaminophenyl)carbonylamino]phenyl}-2-(3-pentylamino)-7-hydroxyquinazoline]: 152 °C; for `CC(C)Nc1ncc2cc(-c3cccc(NC(=O)c4cc(F)cc(N5CCCC5)c4)c3)c(O)cc2n1` [Compound 351, 6-{3-[3-Fluoro-5-(pyrrolidin-1-yl)benzoylamino]phenyl}-7-hydroxy-2-(isopropylamino)quinazoline]: 229 °C.

Take `Cc1ccccc1-c1cc2cnc(NC3CCCCC3)nc2cc1O` [Compound 171, 2-(Cyclohexylamino)-7-hydroxy-6-(2-methylphenyl)quinazoline]: the melting point was 158 °C. On the same count and under the same terms, in the case of `Cc1ccc(C(=O)NC2CC2)cc1-c1cc2cnc(Nc3c(C)cccc3C)nc2cc1O` [Compound 317, 6-(5-Cyclopropylcarbamoyl-2-methylphenyl)-2-(2,6-dimethylanilino)-7-hydroxyquinazoline] it was 210 to 213 °C.

Turning to `Cc1cc(C)c(Nc2ncc3cc(-c4ccccc4C)c(O)cc3n2)c(C)c1` [Compound 300, 7-Hydroxy-6-(2-methylphenyl)-2-(2,4,6-trimethylanilino)quinazoline], the melting point amounted to 142 °C. On the same count and under the same terms, the same measure for `CC(C)Nc1ncc2cc(-c3cccc(C(=O)Nc4ccnc(N5CCCC5)c4)c3)c(O)cc2n1` [Compound 372, 7-Hydroxy-2-isopropylamino-6-{3-[2-(pyrrolidin-1-yl)pyridin-4-ylcarbamoyl]phenyl}quinazoline]: 275 to 279 °C; for `CCONC(=O)c1ccc(C)c(-c2cc3cnc(NC(C)C)nc3cc2O)c1` [Compound 380, 6-(5-Ethoxycarbamoyl-2-methylphenyl)-7-hydroxy-2-(isopropylamino)quinazoline]: 157 °C; for `CCC(CC)Nc1ncc2cc(-c3cccc(NC(=O)c4ccnc(N5CCCC5)c4)c3)c(O)cc2n1` [Compound 382, 2-(3-Pentylamino)-7-hydroxy-6-{3-[2-(pyrrolidin-1-yl)pyridin-4-ylcarbonylamino]phenyl}quinazoline]: 194 °C.

`CC[C@H](C)Nc1ncc2cc(-c3cccc(NC(=O)c4ccnc(N5CCCC5)c4)c3)c(O)cc2n1` [Compound 384, (S)-2-(sec-Butylamino)-7-hydroxy-6-{3-[2-(pyrrolidin-1-yl)pyridin-4-ylcarbonylamino]phenyl}quinazoline] had a melting point of 165 to 168 °C. The compound `Cc1ccc(C(N)=O)cc1-c1cc2cnc(NC(C)C)nc2cc1O` [Compound 378, 6-(5-Carbamoyl-2-methylphenyl)-7-hydroxy-2-(isopropylamino)quinazoline] gave a melting point of 235 to 236 °C. On the same count and under the same terms, in the case of `CC(C)Nc1ncc2cc(-c3cccc(NC(=O)c4ccnc(N5CCN(C)CC5)c4)c3)c(O)cc2n1` [Compound 374, 7-Hydroxy-2-isopropylamino-6-{3-[2-(4-methylpiperazin-1-yl)pyridin-4-ylcarbonylamino]phenyl}quinazoline] it was 178 °C; in that of `CC(C)Nc1ncc2cc(-c3cccc(NC(=O)c4cccc(N5CCCCC5)c4)c3)c(O)cc2n1` [Compound 386, 7-Hydroxy-2-isopropylamino-6-{3-[3-(piperidino)benzoylamino]phenyl}quinazoline], 230 °C. Same read-out and setting: in the case of `CC(C)Nc1ncc2cc(-c3cccc(NC(=O)c4cc(F)cc(N5CCCCC5)c4)c3)c(O)cc2n1` [Compound 370, 6-{3-[3-Fluoro-5-(piperidino)benzoylamino]phenyl}-7-hydroxy-2-(isopropylamino)quinazoline] it was 215 to 217 °C; in that of `CC(C)Nc1ncc2cc(-c3cccc(NC(=O)c4cccc(N5CCCC5)c4)c3)c(O)cc2n1` [Compound 376, 7-Hydroxy-2-isopropylamino-6-{3-[3-(pyrrolidin-1-yl)benzoylamino]phenyl}quinazoline], 235 to 236 °C; in that of `Cc1cc(F)ccc1-c1cc(C(=O)Nc2cccc(-c3cc4cnc(NC(C)C)nc4cc3O)c2)ccn1` [Compound 388, 6-{3-[2-(4-Fluoro-2-methylphenyl)pyridin-4-ylcarbonylamino]phenyl}-7-hydroxy-2-(isopropylamino)quinazoline], 224 to 226 °C.

Values taken from US7906522B2, “2-aminoquinazoline derivatives” (Kyowa Hakko Kirin Co., Ltd, priority 2005, dated 2011).
